Measured values taken from publication PMC7506137, “Selective Phosphodiesterase 1 Inhibitor BTTQ Reduces Blood Pressure in Spontaneously Hypertensive and Dahl Salt Sensitive Rats: Role of Peripheral Vasodilation” (Frontiers in Physiology, 2020).

How the values were obtained:
Rat PDE1B = molecular target: T1, Rat PDE1B (Rattus norvegicus, UniProt Q01066); test: PDE scintillation proximity enzyme assay; assay type: biochemical
T1 construct: made in house; host or cells: baculovirus-infected insect cells
T1 sequence (Q01066 1-535): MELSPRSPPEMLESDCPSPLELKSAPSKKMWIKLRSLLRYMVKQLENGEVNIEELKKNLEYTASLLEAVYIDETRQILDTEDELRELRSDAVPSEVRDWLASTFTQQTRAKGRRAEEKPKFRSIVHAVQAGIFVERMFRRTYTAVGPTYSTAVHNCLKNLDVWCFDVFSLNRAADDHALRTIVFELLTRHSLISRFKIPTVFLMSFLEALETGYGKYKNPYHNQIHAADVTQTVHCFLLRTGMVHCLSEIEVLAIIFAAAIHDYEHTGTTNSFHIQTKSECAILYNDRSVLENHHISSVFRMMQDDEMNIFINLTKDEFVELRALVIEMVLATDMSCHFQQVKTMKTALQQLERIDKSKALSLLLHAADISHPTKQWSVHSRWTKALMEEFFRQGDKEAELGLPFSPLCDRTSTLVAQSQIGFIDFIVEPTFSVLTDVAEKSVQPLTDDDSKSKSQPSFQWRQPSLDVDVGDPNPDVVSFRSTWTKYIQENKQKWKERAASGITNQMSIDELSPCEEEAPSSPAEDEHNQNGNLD
Procedure: All PDE enzyme activities were measured with a yittrium silicate based scintillation proximity assay that detects radioactive nucleotide monophosphates but not cyclic monophosphates. Assays are conducted in a total volume of 50 μl in 384 well plates (3706, Corning): comprised of 24 μl enzyme, 1 μl compound, and 25 μl of cyclic nucleotide. The general assay buffer consists of 50 mM Tris-HCl (pH 7.5) and 0.1% (w/v) bovine serum albumin (Fatty Acid Free, Sigma-Aldrich). Enzyme concentrations, substrate concentrations, and various PDE-specific buffer additives are described in Supplementary Table 1. Compounds to be tested are diluted in pure dimethyl sulfoxide (DMSO) using 10-point concentration-response curves, and 1 μl is acoustically dispensed into assay plates using the Echo555 (LabCyte). Maximal compound concentration in the reaction mixture is either 10 or 100 μM. Compounds at the appropriate concentration are pre-incubated with either of the PDE enzymes for 30 min before the reaction is started by the addition of substrate ([8-^3H]-cAMP, 20.7 Ci/mmol or [8-^3H]-cGMP; 6.5 Ci/mmol, Perkin Elmer). Reactions are allowed to proceed for 60 min at room temperature before quenching. Next, reactions are stopped by the addition of 400 μg/per well SPA beads (RPNQ0150, Perkin Elmer) and a potent non-selective PDE inhibitor to quench the reaction. Bead bound radioactivity (product) is quantified 12 h later a Microbeta counter (Perkin Elmer). Data is normalized to % inhibition using standard methods ([Campbell et al., 2004]), and IC50 values were plotted using PRISM (GraphPad Software) using the 4 parameter logistic equation ([Campbell et al., 2004]). Data for potency values are expressed as the geometric mean and arithmetic standard deviation.

[1] = Fraction unbound in rat plasma; assay type: in vitro ADME; conditions: read-out: FU Value (FU Plasma Exp Rat)
From the text: Supplement Table_2.xlsx, sheet "Supplementary table 2"

PDE1 = test: Calculated target engagement from unbound drug concentration; assay type: in vivo, Rat; conditions: for % TE: 1 h, hill slope 1
Dahl Salt Sensitive rats = test: Rat telemetry, blood pressure and heart rate; assay type: in vivo
From the text: (§1) Male Sprague Dawley (Taconic Biosciences) rats, Spontaneous Hypertensive rats (Charles River Laboratories, United States), and Dahl Salt Sensitive rats (Medical College of Wisconsin) were implanted with transmitters (HD S10; Data Science International) for collection of BP and heart rate (HR) data. The transmitters are capable of transmitting a BP signal via a pressure catheter inserted into the abdominal aorta. Initially, a baseline was established and recorded. Each rat was then removed from its recording cage and was dosed by p.o. gavage with vehicle or compound and the animals were then returned to the recording cage. Data sampling for BP and HR was carried out in intervals at selected time points for the duration of the experiment.
(§2) All data in this manuscript were presented as mean ± SEM with a significance level of p < 0.05, and n represents the number of individual animals. The significance of differences in concentration-response curves in the ear temperature and, myograft study were calculated using t-test, compare to the vehicle group. The EC50 was calculated using GraphPad Prism 8.3 using a 4-parameter logistic non-linear curve fit model. Single-dose rat telemetry data for normal and SHR rats and repeat-dose telemetry data in Dahls salt-sensitive rats were analyzed by two-way repeated measures ANOVA. Treatment group main effects were compared by Tukey’s HSD method. All telemetry data were analyzed with GraphPad Prism 8.3.

[2] = system: Spontaneous Hypertensive rats (SHR); test: Rat telemetry, blood pressure and heart rate; assay type: in vivo
From the text: as §1, §2

Sprague Dawley rats = test: Rat telemetry, blood pressure and heart rate; assay type: in vivo
From the text: as §1, §2

[3] = Rat PK parameters (IV and oral); assay type: in vivo
[4] = 3 mg/kg twice daily oral for 21 days, high salt (4%) diet

IC50 (Rat PDE1B): 1 nM
fraction unbound [1]: 0.053
IC50 (PDE1; IC50 used for the target engagement calculation): 1.37 nM
% of dose recovered in urine [3]: 0.4%
clearance ([3]; in vivo, 1 mg/kg, IV 1 mpk, mean ± SD, 3 animals): 3.2 ± 0.6 mL/min/kg
Vd ([3]; in vivo, 1 mg/kg, IV 1 mpk, mean ± SD, 3 animals, read-out: IV Vdss): 0.6 ± 0.04 L/kg
half-life ([3]; in vivo, 1 mg/kg, IV 1 mpk, mean ± SD, 3 animals, read-out: IV t1/2 (converted)): 2.7 ± 0.5 h
bioavailability ([3]; in vivo, IV 1 mpk and oral 10 mpk, mean ± SD, 3 animals): 58 ± 20%
SMILES: O=c1c2nnc(C3(C4CC4)CC3)n2c2c(n1CC1CC1)CCCC2 [BTTQ, 1-[1,1′-bi(cyclopropyl)-1-yl]-5-(cyclopropylmethyl)-6,7,8,9-tetrahydro[1,2,4]triazolo[4,3-A]quinoxaline-4(5H)-one]
% TE (PDE1; dose 0.1 (mg/kg oral)): 88.55%
% TE (PDE1; dose 0.3 (mg/kg oral)): 95.29%
% TE (PDE1; dose 1 (mg/kg oral)): 98.54%
% TE (PDE1; dose 3 (mg/kg oral)): 99.31%
MAP compared to the vehicle-treated group (Dahl Salt Sensitive rats; [4]): profound reduction
heart rate (Dahl Salt Sensitive rats; [4]): elevation of heart rate
lowering of blood pressure compared to the vehicle-treated group (Dahl Salt Sensitive rats; Dahl salt-sensitive rats): ~24 mmHg
effect on BP ([2]; 0.03 mg/kg twice daily oral): did not show any effect
effect on HR ([2]; 0.03 mg/kg twice daily oral): did not show any effect
MAP ([2]; 0.03, 0.1, 0.3, 1, and 3 mg/kg twice daily oral, 24 h telemetry): dose-dependent decrease
heart rate ([2]; 0.03-3 mg/kg twice daily oral): dose-dependent increase
additional blood pressure lowering ([2]; BTTQ administered on top of ACE inhibitor): about 22 mmHg
lowering of blood pressure compared to the vehicle-treated group ([2]; SHR): ~36 mmHg
heart rate (Sprague Dawley rats; 1 and 3 mg/kg twice daily oral): dose-dependent increase
immediate decrease in MAP compared to the vehicle (Sprague Dawley rats; 1 and 3 mg/kg twice daily oral (both groups), within 1 h of the first dose): about 5 mmHg
time after second dose at which BP-lowering effect returned to baseline (Sprague Dawley rats; high dose group (3 mg/kg twice daily oral)): 7 h
lowering of blood pressure compared to the vehicle-treated group (Sprague Dawley rats; normal Sprague Dawley rats): about 9 mmHg
